pEC50: −log10 of the molar value. In brackets after ≈: the same amount, converted by molar mass. One block for each compound: values may come before it. Activity calls are given as the source filed them. The calls are words filed in the database; no cut-off is given here.
Key:
HepG2 [1] = test: Induction of TRIB1 expression in human HepG2 cells measured after overnight incubation by qRT-PCR analysis; type: functional, cell-based
HepG2 [2] = test: Induction of TRIB1 expression in human HepG2 cells assessed as increase in ApoB secretion measured after 24 hrs by ELISA; type: functional, cell-based
HepG2 [3] = test: Down regulation of PCSK9 expression in human HepG2 cells after 24 hrs by ELISA; type: functional, cell-based
HepG2 [4] = test: Up regulation of LDLR expression in human HepG2 cells after 24 hrs by ELISA; type: functional, cell-based
HepG2 [5] = test: Induction of LDL uptake in human HepG2 cells preincubated for 20 hrs followed by BODIPY-FL-LDL addition and measured after 5 hrs by Hoechst 33342 staining based microscopic analysis; type: functional, cell-based
HepG2 [6] = test: Induction of TRIB1 expression in human HepG2 cells assessed as reduction in 13[C3]-D5-glycerol incorporation into C50:2 triglyceride at 2 uM preincubated for 24 hrs followed by 13[C3]-D5-glycerol addition and measured by LC/MS analysis; type: functional, cell-based
HepG2 [7] = test: Induction of TRIB1 expression in human HepG2 cells assessed as reduction in 13[C3]-D5-glycerol incorporation into C48:2 triglyceride at 2 uM preincubated for 24 hrs followed by 13[C3]-D5-glycerol addition and measured by LC/MS analysis; type: functional, cell-based
HepG2 [8] = test: Up regulation of TRIB1 expression in human HepG2 cells at 1 uM measured after 6 to 24 hrs by transcriptional profiling analysis; type: functional, cell-based
HepG2 [9] = test: Up regulation of LDLR expression in human HepG2 cells at 1 uM measured after 6 to 24 hrs by transcriptional profiling analysis; type: functional, cell-based
HepG2 [10] = test: Down regulation of DGAT1 gene expression in human HepG2 cells at 1 uM measured after 24 hrs by transcriptional profiling analysis; type: functional, cell-based
HepG2 [11] = test: Down regulation of MOGAT2 gene expression in human HepG2 cells at 1 uM measured after 24 hrs by transcriptional profiling analysis; type: functional, cell-based
HepG2 [12] = test: Down regulation of MTTP gene expression in human HepG2 cells at 1 uM measured after 24 hrs by transcriptional profiling analysis; type: functional, cell-based
HepG2 [13] = test: Down regulation of APOC3 gene expression in human HepG2 cells at 1 uM measured after 24 hrs by transcriptional profiling analysis; type: functional, cell-based
HepG2 [14] = test: Down regulation of HMGCS1 gene expression in human HepG2 cells at 1 uM measured after 24 hrs by transcriptional profiling analysis; type: functional, cell-based
HepG2 [15] = test: Down regulation of HMGCR gene expression in human HepG2 cells at 1 uM measured after 24 hrs by transcriptional profiling analysis; type: functional, cell-based
HepG2 [16] = test: Down regulation of ACAT2 gene expression in human HepG2 cells at 1 uM measured after 24 hrs by transcriptional profiling analysis; type: functional, cell-based
HepG2 [17] = test: Down regulation of MVK gene expression in human HepG2 cells at 1 uM measured after 24 hrs by transcriptional profiling analysis; type: functional, cell-based
HepG2 [18] = test: Down regulation of LSS gene expression in human HepG2 cells at 1 uM measured after 24 hrs by transcriptional profiling analysis; type: functional, cell-based
HepG2 [19] = test: Up regulation of JUNB expression in human HepG2 cells at 1 uM measured after 6 hrs by transcriptional profiling analysis; type: functional, cell-based
HepG2 [20] = test: Up regulation of EGR1 expression in human HepG2 cells at 1 uM measured after 6 hrs by transcriptional profiling analysis; type: functional, cell-based
HepG2 [21] = test: Up regulation of FOS expression in human HepG2 cells at 1 uM measured after 6 hrs by transcriptional profiling analysis; type: functional, cell-based
HepG2 [22] = test: Up regulation of JUN expression in human HepG2 cells at 1 uM measured after 6 hrs by transcriptional profiling analysis; type: functional, cell-based
HepG2 [23] = test: Up regulation of DUSP1 expression in human HepG2 cells at 1 uM measured after 6 hrs by transcriptional profiling analysis; type: functional, cell-based
HepG2 [24] = test: Up regulation of ZFP36 expression in human HepG2 cells at 1 uM measured after 6 hrs by transcriptional profiling analysis; type: functional, cell-based
HepG2 [25] = test: Up regulation of ATF3 expression in human HepG2 cells at 1 uM measured after 6 hrs by transcriptional profiling analysis; type: functional, cell-based
HepG2 [26] = test: Effect on SREBF1 expression in human HepG2 cells at 1 uM measured after 6 to 24 hrs by transcriptional profiling analysis; type: functional, cell-based
HepG2 [27] = test: Effect on SREBF2 expression in human HepG2 cells at 1 uM measured after 6 to 24 hrs by transcriptional profiling analysis; type: functional, cell-based
HepG2 [28] = test: Up regulation of LDLR gene expression in human HepG2 cells measured after 6 hrs by qRT-PCR analysis relative to control; type: functional
HepG2 [29] = test: Up regulation of TRIB1 gene expression in human HepG2 cells measured after 6 hrs by qRT-PCR analysis relative to control; type: functional
HepG2 [30] = test: Up regulation of LDLR expression in human HepG2 cells at 10 uM measured after 6 hrs in presence of JAK inhibitor CP-690550 by qRT-PCR analysis; type: functional, cell-based
HepG2 [31] = test: Up regulation of LDLR expression in human HepG2 cells at 10 uM measured after 6 hrs in presence of MEK inhibitor U0126 by qRT-PCR analysis; type: functional, cell-based
[32] = molecular target: T1, Mitogen-activated protein kinase; ERK1/ERK2 (Homo sapiens) (UniProt P27361+P28482); test: Activation of ERK1/2 phosphorylation in human HepG2 cells assessed as ratio of phosphorylated ERK1/2 to total ERK1/2 at 2 uM after 30 mins by Western blot analysis relative to control; type: cell-based
[33] = molecular target: T1, Mitogen-activated protein kinase; ERK1/ERK2 (Homo sapiens); test: Activation of ERK1/2 phosphorylation in human HepG2 cells assessed as ratio of phosphorylated ERK1/2 to total ERK1/2 at 2 uM after 6 hrs by Western blot analysis relative to control; type: cell-based
HepG2 [34] = test: Up regulation of LDLR gene expression in human HepG2 cells cultured in cholesterol depleted media at 2.5 uM after 6 hrs by qRT-PCR analysis; type: functional, cell-based
HepG2 [35] = test: Down regulation of PCSK9 gene expression in human HepG2 cells cultured in cholesterol depleted media at 2.5 uM after 24 hrs by qRT-PCR analysis; type: functional, cell-based
HepG2 [36] = test: Up regulation of LDLR gene expression in human HepG2 cells at 2 uM after 6 hrs in presence of simvastatin by qRT-PCR analysis; type: functional, cell-based
HepG2 [37] = test: Up regulation of PCSK9 gene expression in human HepG2 cells at 2 uM after 24 hrs in presence of atorvastatin by qRT-PCR analysis; type: functional, cell-based
HepG2 [38] = test: Up regulation of TRIB1 gene expression in human HepG2 cells measured after 6 hrs by qRT-PCR analysis; type: functional, cell-based; conditions: HepG2, 6 h
HepG2 [39] = test: Up regulation of LDLR gene expression in human HepG2 cells measured after 6 hrs by qRT-PCR analysis; type: functional, cell-based; conditions: HepG2, 6 h
HepG2 [40] = test: Down regulation of PCSK9 gene expression in human HepG2 cells measured after 24 hrs by qRT-PCR analysis; type: functional, cell-based; conditions: HepG2, 24 h
[41] = Stability in mouse liver microsomes assessed as parent compound remaining at 1 uM incubated for 60 mins under shaking condition by UPLC/MS analysis; type: ADME, Microsome; conditions: read-out: Stability
[42] = Tmax in C57BL/6 mouse plasma at 10 mg/kg, ip administered as single dose by mass spectrometry; type: ADME, organism-based
[43] = Cmax in C57BL/6 mouse plasma at 10 mg/kg, ip administered as single dose by mass spectrometry; type: ADME, organism-based; set-up: dose 10 mg/kg, route intraperitoneal
[44] = AUC (infinity) in C57BL/6 mouse plasma at 10 mg/kg, ip administered as single dose by mass spectrometry; type: ADME, organism-based; set-up: dose 10 mg/kg, route intraperitoneal, time infinity; conditions: in vivo
[45] = Half life in C57BL/6 mouse plasma at 10 mg/kg, ip administered as single dose by mass spectrometry; type: ADME, organism-based
[46] = Clearance in C57BL/6 mouse plasma at 10 mg/kg, ip administered as single dose by mass spectrometry; type: ADME, organism-based
[47] = Apparent volume of distribution in C57BL/6 mouse plasma at 10 mg/kg, ip administered as single dose by mass spectrometry; type: ADME, organism-based; conditions: in vivo
[48] = Tmax in C57BL/6 mouse liver at 10 mg/kg, ip administered as single dose by mass spectrometry; type: ADME, organism-based
[49] = Cmax in C57BL/6 mouse liver at 10 mg/kg, ip administered as single dose by mass spectrometry; type: ADME, organism-based; set-up: dose 10 mg/kg, route intraperitoneal
[50] = AUC (infinity) in C57BL/6 mouse liver at 10 mg/kg, ip administered as single dose by mass spectrometry; type: ADME, organism-based; set-up: dose 10 mg/kg, route intraperitoneal, time infinity; conditions: in vivo
[51] = Half life in C57BL/6 mouse liver at 10 mg/kg, ip administered as single dose by mass spectrometry; type: ADME, organism-based
[52] = Apparent volume of distribution in C57BL/6 mouse liver at 10 mg/kg, ip administered as single dose by mass spectrometry; type: ADME, organism-based; conditions: in vivo
[53] = Unbound fraction in C57BL/6 mouse liver at 10 mg/kg, ip administered as single dose by mass spectrometry; type: ADME, organism-based
[54] = Solubility of the compound in 1% DMSO/phosphate buffered saline at pH 7.4 incubated for 18 hrs under shaking condition by UPLC/MS analysis; type: physicochemical

T1 sequence (P27361 whole entry, looked up): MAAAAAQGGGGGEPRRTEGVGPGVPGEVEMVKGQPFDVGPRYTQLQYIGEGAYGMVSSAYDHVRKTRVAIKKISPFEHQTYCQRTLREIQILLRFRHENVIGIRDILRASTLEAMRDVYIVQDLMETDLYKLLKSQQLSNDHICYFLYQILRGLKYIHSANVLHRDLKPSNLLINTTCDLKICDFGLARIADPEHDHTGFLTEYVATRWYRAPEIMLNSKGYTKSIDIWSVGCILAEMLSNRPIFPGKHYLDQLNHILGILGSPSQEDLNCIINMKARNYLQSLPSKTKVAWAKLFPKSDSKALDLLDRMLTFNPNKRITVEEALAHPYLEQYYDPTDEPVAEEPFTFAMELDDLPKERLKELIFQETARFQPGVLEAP
T1 sequence (P28482 whole entry, looked up): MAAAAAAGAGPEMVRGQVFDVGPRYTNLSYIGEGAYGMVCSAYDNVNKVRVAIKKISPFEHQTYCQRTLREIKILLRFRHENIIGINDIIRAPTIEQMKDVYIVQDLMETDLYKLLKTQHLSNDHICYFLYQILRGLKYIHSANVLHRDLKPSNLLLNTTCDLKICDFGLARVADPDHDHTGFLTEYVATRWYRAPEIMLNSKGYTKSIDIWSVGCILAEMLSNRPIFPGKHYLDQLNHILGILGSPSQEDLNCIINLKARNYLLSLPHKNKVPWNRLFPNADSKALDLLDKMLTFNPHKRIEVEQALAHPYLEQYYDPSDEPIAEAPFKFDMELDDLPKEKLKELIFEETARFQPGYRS

pEC50 (HepG2 [1]): 6.64 | fold change (FC) [32]: 2 | fold change (FC) [33]: 2 | pEC50 (HepG2 [38]): 6.37 | pEC50 (HepG2 [39]): 6.31 | pEC50 (HepG2 [40]): 6.62 | remaining at 1 h, 1 µM [41]: 0% | Tmax [42]: 1 h | Cmax [43]: 437 ng/mL | AUC [44]: 1010 µg/L/h | half-life [45]: 1.63 h | CL/F [46]: 165 mL/min/kg | Vz [47]: 23.3 L/kg | Tmax [48]: 4.8 min | Cmax [49]: 4660 ng/mL | AUC [50]: 11558 µg/L/h | half-life [51]: 2.25 h | Vz [52]: 2.81 L/kg | fraction unbound [53]: 0.01
Compound: CN1C(=O)c2cc(NC(=O)c3ccc(C(F)(F)F)cc3)ccc2OC[C@@H]2O[C@H](CC(=O)NC3Cc4ccccc4C3)CC[C@@H]21
Activity (HepG2 [2]): Active | Activity (HepG2 [3]): Active | Activity (HepG2 [4]): Active | Activity (HepG2 [5]): Active | Activity (HepG2 [6]): Active | Activity (HepG2 [7]): Active | Activity (HepG2 [8]): Active | Activity (HepG2 [9]): Active | Activity (HepG2 [10]): Active | Activity (HepG2 [11]): Active | Activity (HepG2 [12]): Active | Activity (HepG2 [13]): Active | Activity (HepG2 [14]): Active | Activity (HepG2 [15]): Active | Activity (HepG2 [16]): Active | Activity (HepG2 [17]): Active | Activity (HepG2 [18]): Active | Activity (HepG2 [19]): Active | Activity (HepG2 [20]): Active | Activity (HepG2 [21]): Active | Activity (HepG2 [22]): Active | Activity (HepG2 [23]): Active | Activity (HepG2 [24]): Active | Activity (HepG2 [25]): Active | Activity (HepG2 [26]): inactive | Activity (HepG2 [27]): inactive | max activation (HepG2 [28]): 4.8 | max activation (HepG2 [29]): 4.7 | Activity (HepG2 [30]): Active | Activity (HepG2 [31]): inactive | Activity (HepG2 [34]): Active | Activity (HepG2 [35]): Active | Activity (HepG2 [36]): Active | Activity (HepG2 [37]): inactive

pEC50 (HepG2 [38]): 5.96 | pEC50 (HepG2 [39]): 5.61 | pEC50 (HepG2 [40]): 7.60 | solubility kinetic at 18 h [54]: 90 µM (≈ 50.5 µg/mL) | remaining at 1 h, 1 µM [41]: 54%
Compound: CN1C(=O)c2cc(NC(=O)c3ccc(C(F)(F)F)cc3)ccc2OC[C@@H]2O[C@H](CNC(=O)[C@@H]3CCCO3)CC[C@@H]21
max activation (HepG2 [28]): 4.3 | max activation (HepG2 [29]): 3.7

Source: ChEMBL document CHEMBL4368855, “Novel tricyclic glycal-based TRIB1 inducers that reprogram LDL metabolism in hepatic cells” (Medchemcomm, 2018)
